# Laboratory results from patent US11883398B2, “Dipeptidylpeptidase 4 inhibition enhances lymphocyte trafficking, improving both naturally occurring tumor immunity and immunotherapy” (INSTITUT PASTEUR, priority 2015, dated 2024).
# B1: mCCL4: recombinant mouse chemokine (Peprotech) (protein, UniProt P14097 24-92, looked up)
# C-C motif chemokine 4: APMGSDPPTSCCFSYTSRQLHRSFVMDYYETSSLCSKPAVVFLTKRGRQICANPSEPWVTEYMSDLELN
# B2: mCXCL10: recombinant full length mouse CXCL10 (Peprotech) (protein, UniProt P17515 22-98, looked up)
# C-X-C motif chemokine 10: IPLARTVRCNCIHIDDGPVRMRAIGKLEIIPASLSCPRVEIIATMKKNDEQRCLNPESKTIKNLMKAFSQKRSKRAP
# B3: mCXCL9: recombinant mouse chemokine (Peprotech) (protein, UniProt P18340 22-126, looked up)
# C-X-C motif chemokine 9: TLVIRNARCSCISTSRGTIHYKSLKDLKQFAPSPNCNKTEIIATLKNGDQTCLDPDSANVKKLMKEWEKKISQKKKQKRGKKHQKNMKNRKPKTPQSRRRSRKTT
# B4: mCCL22: recombinant mouse chemokine (Peprotech) (protein, UniProt O88430 25-92, looked up)
# C-C motif chemokine 22: GPYGANVEDSICCQDYIRHPLPSRLVKEFFWTSKSCRKPGVVLITVKNRDICADPRQVWVKKLLHKLS
# B5: mCCL3: recombinant mouse chemokine (Peprotech) (protein, UniProt P10855 24-92, looked up)
# C-C motif chemokine 3: APYGADTPTACCFSYSRKIPRQFIVDYFETSSLCSQPGVIFLTKRNRQICADSKETWVQEYITDLELNA
# Experiments:
# DPP9 = DPP9 (Homo sapiens, UniProt Q86TI2); conditions: Verspohl 2012; Huan et al. 2015; cited from earlier work
# DPP8 = DPP8 (Homo sapiens, UniProt Q6V1X1); conditions: Verspohl 2012; Huan et al. 2015; cited from earlier work
# [1] = tested on: DPP8/9 over-expressing cells; conditions: cited from earlier work; for selectivity for DPP4 over DPP8 and 9: Huan et al. 2015; for selectivity towards DPP4: Madar et al. 2006, Gilibili et al. 2015
# DASH proteases = conditions: WO2013/078059; Narra et al. 2007; cited from earlier work
# mDPP4 = target: T1, mDPP4 (Mus musculus, UniProt P28843); test: DPP4 processing of recombinant chemokines (SELDI-TOF mass spectrometry); type: biochemical; conditions: 10 nM mDPP4, 30 min at 37° C.
# T1 construct: purchased Peprotech
# Protocol: Recombinant mDPP4, mCXCL10, mCXCL9, mCXCL11, mCCL2, mCCL3, mCCL4, mCCL5, mCXCL12 and mCCL22 were purchased from Peprotech. For surface-enhanced laser desorption/ionization-[…] (SELDI-TOF) mass spectrometry, chemokines were incubated in the presence or absence of 10 nM of mDPP4 for 30 min at 37° C. The digested product was applied onto an H4 protein chip, following the manufacturer's instructions and analyzed using the PROTEINCHIP™ SYSTEMS SERIES 4000 (Ciphergen). Data were analyzed using CIPHERGENEXPRESS Software.
# CXCR3-expressing T cells = test: Model of trafficking into the peritoneal cavity; type: in vivo, mouse; conditions: 1 μg chemokine intraperitoneally
# Protocol: WT and Dpp4^−/− mice were intraperitoneally injected with PBS or 1 μg of mCXCL10, mCXCL9 or mCCL5 (all from Peprotech). At the indicated time points, mice were sacrificed and peritoneal cells were collected in 10 mL of PBS. For thioglycollate induced peritonitis mice were intraperitoneally injected with thioglycollate 3% weight/volume, 24 hours before collection of peritoneal cells.
# Fluorochrome-conjugated anti-mouse CD3 (clone145-2C11), CD8 (clone 53-6.7), CD4 (clone RM4-5), NK1.1 (clone PK136), CD49b (clone DX5), CD25 (clone PC61), B220 (clone RA3-6B2), Ly6G (clone 1A8), Ly6C (clone AL-21), CD11 b (clone M1/70) Siglec-F (clone E50-2440), MHCII IA-IE (clone M5/114.15.2), CD45.2 (clones 56-0454-82 and 109830), Thy-1.1 (clone HIS51), Thy-1.2 (clone 53-2.1), DPP4 (clone H194-112) and CXCR3 (clone CXCR3-173) were from eBiosciences and BD Biosciences. Fluorochrome conjugated anti-F4/80 (clone CI:A3-1) was from AbDserotec. For exclusion of dead cells, Live/Dead fixable Aqua reagent (Invitrogen) was used. For all staining protocols, cell suspensions were incubated with mouse CD16/CD32 Fc Blocking antibodies (BD Biosciences) prior to antibody. For analysis of peritoneal cavity infiltrates, cells were washed and incubated with a cocktail of fluorochrome-conjugated antibodies. For analysis of tumor infiltrates, B16F10 tumors were collected at the indicated time points and digested in PBS supplemented with 2.7 mg/ml of Collagenase (Roche) and 23U/ml of Deoxyribonuclease I (Invitrogen) for 30 min, 37° C. Digestion was terminated by adding PBS supplemented with 2% FCS and 5 mM EDTA (Gibco). Tumor cell suspensions were obtained after filtration over a 70 μm cell strainer. For determination of cell numbers, the […] COUNTING BEADS reagent (Invitrogen) was used. Flow cytometry was performed using a BD LSRFORTESSA or a BD CANTO cytometer, with DIVA software. Computer analysis was done with FLOWJO (Treestar).
# B16F10 tumors = test: Flow cytometry of leukocytes infiltrating B16F10 tumors; type: in vivo, mouse; conditions: day 7 B16F10 tumors, 12-14 h after injection
# Protocol: B16F10 and M04 (Ovalbumin-expressing B16F10 cells, gift from C. Reis e Sousa) tumor cells were cultured in DMEM (Gibco) supplemented with 10% FCS (PAA), 0.1 mM non-essential amino acids, 1 mM sodium pyruvate, 10 mM Hepes, 70 μM beta-mercaptoethanol and 23 μg/ml gentamycin (all from Gibco). CT26 colon carcinoma cells were cultured in RPMI (Gibco) supplemented as described for DMEM. Cells for injections were passaged 1-2 times after thawing, before use. WT and genetically modified mice were subcutaneously injected with 2×10^5 B16 or 5×10^5 CT26 cells in the shaved right flank. When indicated, mice received an intra-tumoral injection of 1 μg of recombinant mCXCL10, 5 μg CpG-A in DOPTAP or vehicle control. For blocking of chemokine and chemokine receptors, WT mice were intraperitoneally injected with 100 μg of hamster a-mCXCR3 (clone CXCR3-173, BioLegend), 100 μg of hamster α-mCCR5 (clone HM-CCR5, BioLegend), 50 μg of rat anti-mCXCL10 (clone 134013, R&D systems) and 20 μg of rat-α-mCXCR4 (clone 2B11/CXCR4, BD Biosciences) or with respective isotype antibodies (hamster IgG (clone HTK888, BioLegend, used as control for mCXCR3 and mCCR5 blockage); rat IgG2a (clone 54447, R&D systems, used as control for mCXCL10 blockade) and rat IgG2b (clone A95-1, BD Biosciences, used as control for mCXCR4 blockade). Intraperitoneal injection was done one day before and 4, 8 and 12 days after tumor cell injection. For CXCL10 neutralization, antibodies were injected on day 2, 5, 8 and 11 after tumor cell injection. For immunotherapy protocols, mice were intraperitoneally injected with 100 μg of mouse α-CTLA-4 (clone 9D9, Bioxcell), 200 μg of PD1 (clone RMP1-14, Bioxcell), a combination of 100 μg of α-CTLA-4+200 μg of a-PD1 or control isotypes (100 μg […] and 200 μg rat IgG2a (clone 2A3), both from Bioxcell) on day 3, 6 and 9 after tumor cell implantation. For adoptive cell transfer experiments, Pmel-1 Thy-1.1^+Thy-1.1^+, Cxcr3^−/− Thy-1.1^+Thy-1.2^+ Pmel-1 or OT1 splenocytes were activated ex-vivo, by incubation with 1 nM of human gp100 (for Pmel-1 cells) or […] (for OT1 cells) peptides for 1h at room temperature with agitation. Splenocytes were then washed and resuspended in R10 supplemented with 30U/mL of recombinant human IL-2. CD8^+ T cells were expanded for 6-7 days before used. For analysis of tumor infiltrates, activated Cxcr3^+/+ Thy-1.1^+Thy-1.1^+ and Cxcr3^−/− Thy-1.1^+Thy-1.2^+ transgenic Pmel-1 CD8^+ T cells were mixed in a 1:1 ratio (total 1×10^6 cells) and injected intravenously into gender matched tumor-bearing mice (3 days after tumor cell injection). For analysis of tumor growth, activated OT1 cells were injected intravenously (1×10^5 cells per mouse) into gender matched tumor-bearing mice, 3 days after tumor cell injection. Tumor height and width were measured with a caliper and tumor volume was calculated (Elliptical volume=width^2×height×0.523). The model of metastatic melanoma was achieved by intravenous injection of 2×10^5 B16 tumor cells. 15 days after tumor cell injection, lungs were dissected, placed in Fekete's solution and metastatic foci were counted. Lungs with more than 100 metastatic nodules were defined as 100.
# Fluorochrome-conjugated anti-mouse CD3 (clone145-2C11), CD8 (clone 53-6.7), CD4 (clone RM4-5), NK1.1 (clone PK136), CD49b (clone DX5), CD25 (clone PC61), B220 (clone RA3-6B2), Ly6G (clone 1A8), Ly6C (clone AL-21), CD11 b (clone M1/70) Siglec-F (clone E50-2440), MHCII IA-IE (clone M5/114.15.2), CD45.2 (clones 56-0454-82 and 109830), Thy-1.1 (clone HIS51), Thy-1.2 (clone 53-2.1), DPP4 (clone H194-112) and CXCR3 (clone CXCR3-173) were from eBiosciences and BD Biosciences. Fluorochrome conjugated anti-F4/80 (clone CI:A3-1) was from AbDserotec. For exclusion of dead cells, Live/Dead fixable Aqua reagent (Invitrogen) was used. For all staining protocols, cell suspensions were incubated with mouse CD16/CD32 Fc Blocking antibodies (BD Biosciences) prior to antibody. […]
# T1 sequence (P28843 whole entry): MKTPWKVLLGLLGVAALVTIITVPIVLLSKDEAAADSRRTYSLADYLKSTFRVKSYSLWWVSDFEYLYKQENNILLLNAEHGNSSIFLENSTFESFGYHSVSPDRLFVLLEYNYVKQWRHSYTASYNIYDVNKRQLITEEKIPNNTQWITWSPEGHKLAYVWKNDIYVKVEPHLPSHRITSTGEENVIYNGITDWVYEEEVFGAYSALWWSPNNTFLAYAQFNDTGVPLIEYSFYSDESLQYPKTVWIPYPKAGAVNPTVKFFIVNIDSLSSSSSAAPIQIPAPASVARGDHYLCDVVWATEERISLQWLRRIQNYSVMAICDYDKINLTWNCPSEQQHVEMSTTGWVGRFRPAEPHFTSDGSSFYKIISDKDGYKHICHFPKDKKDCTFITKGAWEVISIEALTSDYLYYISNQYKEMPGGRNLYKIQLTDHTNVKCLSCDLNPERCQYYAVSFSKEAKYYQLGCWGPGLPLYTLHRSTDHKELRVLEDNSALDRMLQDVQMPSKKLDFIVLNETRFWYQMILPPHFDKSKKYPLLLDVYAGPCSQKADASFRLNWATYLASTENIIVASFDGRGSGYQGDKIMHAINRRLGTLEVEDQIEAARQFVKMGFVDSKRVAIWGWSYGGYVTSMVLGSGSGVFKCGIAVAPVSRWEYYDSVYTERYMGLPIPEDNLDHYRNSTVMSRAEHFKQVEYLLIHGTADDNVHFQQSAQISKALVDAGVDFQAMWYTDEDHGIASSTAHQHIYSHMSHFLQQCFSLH
# DPP9, sequence (Q86TI2 whole entry, species assumed): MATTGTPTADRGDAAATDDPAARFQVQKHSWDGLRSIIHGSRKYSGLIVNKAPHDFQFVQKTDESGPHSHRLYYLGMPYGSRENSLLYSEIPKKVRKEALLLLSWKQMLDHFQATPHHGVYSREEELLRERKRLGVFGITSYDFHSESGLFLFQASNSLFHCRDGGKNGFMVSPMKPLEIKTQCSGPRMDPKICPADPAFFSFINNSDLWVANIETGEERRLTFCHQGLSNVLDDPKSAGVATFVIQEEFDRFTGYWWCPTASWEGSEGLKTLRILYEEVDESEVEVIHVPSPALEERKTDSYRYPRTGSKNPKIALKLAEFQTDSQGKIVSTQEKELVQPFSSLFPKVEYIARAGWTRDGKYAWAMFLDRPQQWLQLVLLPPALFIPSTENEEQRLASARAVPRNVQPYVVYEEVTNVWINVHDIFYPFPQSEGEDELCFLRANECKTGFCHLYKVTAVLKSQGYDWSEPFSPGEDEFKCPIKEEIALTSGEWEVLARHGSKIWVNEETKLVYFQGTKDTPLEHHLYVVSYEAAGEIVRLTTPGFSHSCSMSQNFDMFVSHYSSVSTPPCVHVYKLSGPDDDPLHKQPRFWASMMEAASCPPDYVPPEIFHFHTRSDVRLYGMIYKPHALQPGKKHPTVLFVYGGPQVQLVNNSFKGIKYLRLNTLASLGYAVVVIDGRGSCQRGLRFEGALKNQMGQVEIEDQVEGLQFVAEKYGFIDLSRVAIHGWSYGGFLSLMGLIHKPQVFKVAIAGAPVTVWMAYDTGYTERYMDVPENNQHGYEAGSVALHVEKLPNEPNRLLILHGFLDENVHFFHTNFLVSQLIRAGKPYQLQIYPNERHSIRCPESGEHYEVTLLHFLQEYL
# DPP8, sequence (Q6V1X1 whole entry, species assumed): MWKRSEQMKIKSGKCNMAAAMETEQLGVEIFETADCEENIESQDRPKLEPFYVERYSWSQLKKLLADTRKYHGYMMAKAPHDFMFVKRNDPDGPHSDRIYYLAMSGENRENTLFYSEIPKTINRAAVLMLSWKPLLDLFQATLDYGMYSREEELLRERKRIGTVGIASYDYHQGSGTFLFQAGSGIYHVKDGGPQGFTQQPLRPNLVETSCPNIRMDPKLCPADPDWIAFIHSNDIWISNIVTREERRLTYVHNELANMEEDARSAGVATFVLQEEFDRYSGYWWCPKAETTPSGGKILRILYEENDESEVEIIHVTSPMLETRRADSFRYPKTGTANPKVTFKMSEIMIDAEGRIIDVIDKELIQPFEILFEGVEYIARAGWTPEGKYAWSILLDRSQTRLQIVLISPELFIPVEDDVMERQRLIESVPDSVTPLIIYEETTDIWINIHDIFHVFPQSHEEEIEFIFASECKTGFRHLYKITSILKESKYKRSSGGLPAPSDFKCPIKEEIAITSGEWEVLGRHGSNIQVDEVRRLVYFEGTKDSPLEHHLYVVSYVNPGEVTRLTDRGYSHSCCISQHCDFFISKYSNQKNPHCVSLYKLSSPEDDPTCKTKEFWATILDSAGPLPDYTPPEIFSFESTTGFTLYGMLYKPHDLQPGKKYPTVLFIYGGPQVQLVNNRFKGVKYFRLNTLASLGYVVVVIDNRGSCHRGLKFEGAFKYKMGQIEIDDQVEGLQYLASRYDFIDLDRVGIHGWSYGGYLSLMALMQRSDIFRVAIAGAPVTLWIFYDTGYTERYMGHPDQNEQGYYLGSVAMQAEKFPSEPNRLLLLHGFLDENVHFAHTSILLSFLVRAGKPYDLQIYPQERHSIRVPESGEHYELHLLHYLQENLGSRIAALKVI
molecule,measurement,setting,value
Cn1c(=O)cc(N2CCC[C@@H](N)C2)n(Cc2ccccc2C#N)c1=O [alogliptin],effect on DPP9 activity,DPP9,no effect
same,effect on DPP8 activity,DPP8,no effect
N[C@H]1CC(C(=O)N2CCn3c(nnc3C(F)(F)F)C2)=CC[C@@H]1c1cc(F)c(F)cc1F [ABT-341],selectivity for DPP4 over DPP8 and 9,[1],highly-selective inhibitors of DPP4
same,selectivity towards DPP4,[1],highly selective towards DPP4
CC(C)(C)[C@H](N)C(=O)N1CCC[C@H]1B(O)O [ARI-4175],inhibition of DASH proteases,DASH proteases,inhibiting a multitude of DASH proteases
mCCL2: recombinant mouse chemokine (Peprotech),susceptibility to DPP4 N-terminal truncation,mDPP4,in vitro cleavage
mCXCL12: recombinant mouse chemokine (Peprotech),susceptibility to DPP4 N-terminal truncation,mDPP4,in vitro cleavage
COc1cc2c(cc1OC)[C@@H]1C[C@H](N)[C@@H](N3C[C@@H](CF)CC3=O)CN1CC2 [carmegliptin],selectivity for DPP4 over DPP8 and 9,[1],highly-selective inhibitors of DPP4
same,selectivity towards DPP4,[1],highly selective towards DPP4
N#C[C@@H]1C[C@H](F)CN1C(=O)[C@@H](N)C(c1ccc(F)cc1)c1ccc(F)cc1 [denagliptin],selectivity for DPP4 over DPP8 and 9,[1],highly-selective inhibitors of DPP4
same,selectivity towards DPP4,[1],highly selective towards DPP4
C#C[C@H]1CC[C@@H](C#N)N1C(=O)CNC1(C)CCN(c2cc(C(=O)O)ccn2)CC1 [ABT-279],selectivity for DPP4 over DPP8 and 9,[1],highly-selective inhibitors of DPP4
same,selectivity towards DPP4,[1],highly selective towards DPP4
CC(C)[C@H](N)C(=O)N1CCC[C@H]1B(O)O [Val-boroPro],inhibition of DASH proteases,DASH proteases,inhibiting a multitude of DASH proteases
B1,susceptibility to DPP4 N-terminal truncation,mDPP4,in vitro cleavage
B2,susceptibility to DPP4 N-terminal truncation,mDPP4,sensitive to DPP4 N-terminal truncation
same,infiltration of CXCR3-expressing T cells into the peritoneal cavity in control mice,CXCR3-expressing T cells; control chow,failed to induce significant infiltration of CXCR3-expressing T cells
same,lymphocyte recruitment into the tumor parenchyma after intratumoral mCXCL10,B16F10 tumors,no increase in lymphocyte migration
B3,susceptibility to DPP4 N-terminal truncation,mDPP4,insensitive to DPP4-mediated truncation
same,chemokine-induced leukocyte migration into the peritoneal cavity,"CXCR3-expressing T cells; WT and Dpp4-/- mice, 6 h",migration of NK cells into the peritoneal cavity
B4,susceptibility to DPP4 N-terminal truncation,mDPP4,in vitro cleavage
B5,susceptibility to DPP4 N-terminal truncation,mDPP4,in vitro cleavage
